Data as given in patent publication US9351484B2, “N-alkyl lactam ethers, and compositions and uses thereof” (priority 2010, dated 2016).
“Also recorded” adds a separate entry of the source. Read-outs that look alike come from different tables or passages of the source.

What was measured:
[1] = Freezing point depression of glycerol (or other polyol)-water blends with added ether; assay type: physicochemical
Procedure: Different binary blends of glycerol and water are prepared, and then bis-N-ethyl pyrrolidone ether is added in 1% increments from 0% to 50% of the ether. The freezing point depression of these compositions is measured using a suitable differential thermometer (e.g., a thermocouple).
As a specific subclass to Example 5, a eutectic blend of glycerol-water is prepared, having about 65% glycerol (by weight) and a freezing point depression of about −46° C. Bis-N-ethyl pyrrolidone ether is added in 1% increments from 0% to 50% added ether. The freezing point depression of these compositions is measured using a suitable differential thermometer (e.g., a thermocouple).
[…], replacing glycerol with ethylene glycol, propylene glycol, or pentaerythritol.

[2] = Freezing points of bis-N-ethyl pyrrolidone ether/water blends by differential scanning calorimetry; assay type: physicochemical
Procedure: The freezing points of bis-N-ethyl pyrrolidone ether/water blends were measured using differential scanning calorimetry. All measurements were conducted under nitrogen purge from 25° C. to −80° C. at a cooling rate of 5° C./min using a Q2000 calorimeter by TA Instruments.
Freezing depressions were measured for bis-N-ethyl pyrrolidone ether/water blends (Table 3).

[3] = Aqueous behavior of ether/water blends, pH 1 to 13, chilled; assay type: physicochemical; conditions: equal mass ratio with water, pH adjusted from 1 to 13, chilled to −15° C.
Procedure: The blends were pH adjusted from 1 to 13 and then chilled to −15° C.

[4] = equal volume ratio
Description: The blends were visually observed to determine miscibility of the ether with the various solvents.

[5] = Gas hydrate inhibitor and anti-agglomerant test; conditions: 0.5% and 1.0% (w/w NaCl brine solution), 123 bar, 2.8° C.
Procedure: Bis-N-ethyl pyrrolidone ether was assessed as a gas hydrate inhibitor and as an anti-agglomerant. A three-part fluid blend was prepared having equal mass amounts of Troika crude oil (black oil), synthetic condensate, and a sodium chloride brine solution into which the ether was dissolved. Ether addition levels were studied two times at 0.5% (w/w NaCl brine solution), and one time at 1.0% (w/w NaCl brine solution). The abovementioned fluid blend blanketed with Green Canyon gas (Table 6) at a pressure of 123 bar and maintained at 2.8° C. for the tests.

[6] = cited from earlier work

O=C1CCCN1CCOCCN1CCCC1=O [bis-N-ethyl pyrrolidone ether]
freezing point depression ([1]; ether added 0% to 50% to eutectic glycerol-water blend (about 65% glycerol)): lower than −46 °C | freezing point depression compared to glycerol-water binary blends ([1]; ether added 0% to 50% to glycerol-water blends): further depress the freezing point depression | freezing point depression compared to solutions without the ether ([1]; glycerol replaced with ethylene glycol, propylene glycol, or pentaerythritol): lowers the freezing point depression | freezing point ([2]; 1% in water (by mass)): −9.3 °C | freezing point ([2]; 5% in water (by mass)): −7.9 °C | freezing point ([2]; 10% in water (by mass)): −13.5 °C | freezing point ([2]; 20% in water (by mass)): −13.3 °C | freezing point ([2]; 30% in water (by mass)): −18.2 °C | freezing point ([2]; 40% in water (by mass)): −28.6 °C | freezing point ([2]; 50% in water (by mass)): −43.2 °C | freezing point ([2]; 60% in water (by mass)): <−80 °C | freezing point ([2]; 66% in water (by mass)): <−80 °C | freezing point ([2]; 75% in water (by mass)): <−80 °C | freezing point ([2]; 100% bis-N-ethyl pyrrolidone ether): <−80 °C | phase behavior of blend with water [3]: single phase | miscibility observation ([4]; 2-propanol): miscible | miscibility observation ([4]; acetone): miscible | miscibility observation ([4]; cyclohexane): immiscible | miscibility observation ([4]; cyclohexane, listed as bis-N-ethyl pyrrolidone): insoluble | miscibility observation ([4]; ethyl acetate): miscible | miscibility observation ([4]; hexane): immiscible | miscibility observation ([4]; hexane, listed as bis-N-ethyl pyrrolidone): insoluble | miscibility observation ([4]; methanol): miscible | miscibility observation ([4]; methyl ethyl ketone): miscible | miscibility observation ([4]; toluene): miscible | miscibility observation ([4]; water): miscible | pH in a 50% aqueous solution (50% aqueous solution): 9.5 | viscosity (Cannon Fenske viscometer, #300 tube): 96.4 cP^† | color (APHA) (neat): >500 | freezing point (neat): <−80 °C | refractive index (neat): around 1.51 | specific gravity (neat): 1.148 | thermal decomposition temperature (neat): 275 °C | physical state (neat, ambient conditions): liquid (ambient conditions) | refractive index (neat, listed as bis-N-ethyl pyrrolidone): 1.5063 | surface tension (static) (plate): 50.2 | surface tension (static) (ring): 51.1 | formation of gas hydrates and agglomerants [5]: considerably limited gas hydrate formation; also recorded: very small

OCCO [ethylene glycol]
freezing point ([6]; 11% in water (by mass)): −3 °C | freezing point ([6]; 22% in water (by mass)): −8 °C | freezing point ([6]; 32% in water (by mass)): −16 °C | freezing point ([6]; 43% in water (by mass)): −25 °C | freezing point ([6]; 53% in water (by mass)): −37 °C | freezing point ([6]; 63% in water (by mass)): −55 °C | freezing point ([6]; ethylene glycol and water in equal mass ratio): −32 °C
